Measurements taken from patent US20050209157A1, “Short bioactive peptides and methods for their use” (priority 2001, published 2005).
Read-outs that look alike come from different tables or passages of the source. No end group written: not given here.

How the values were obtained:
[1] = tested on: Staphylococcus aureus ATCC 6538; experiment: Antimicrobial assay I, MIC by OD measurement; assay type: cell-based; details: 37° C. for 24 hours, absorbance 620 nm
[2] = tested on: Pseudomonas aeruginosa ATCC 9027; experiment: Antimicrobial assay I, MIC by OD measurement; assay type: cell-based; details: 37° C. for 24 hours, absorbance 620 nm
[3] = in vitro; assay type: cell-based, human; details: human, human red blood cells, pH 7, hemolytic assay, concentration at 50% hemolysis, 1 hour at 37° C.; read-out: LD50
[4] = tested on: S. aureus (MRSA); assay type: cell-based, Staphylococcus aureus; details: mean of three; 16 to 20 hours at 35° C.
[5] = tested on: S. pyogenes ATCC19615; experiment: Antimicrobial assays II, NCCLS broth microdilution MIC; assay type: cell-based, Streptococcus pyogenes; details: mean of three, in µg/mL
[6] = tested on: yeast (Saccharomyces cerevisiae); experiment: Antimicrobial assay I, yeast assay in RPMI 1640; assay type: cell-based; details: RPMI 1640 media
[7] = tested on: S. pyogenes M76; experiment: Antimicrobial assays II, NCCLS broth microdilution MIC; assay type: cell-based, Streptococcus pyogenes; details: mean of three; 16 to 20 hours at 35° C.
[8] = in vitro; details: human, WI38 normal lung fibroblast cells, LD50 WI38, WI38 normal lung fibroblast line, MTT, 24 hours with peptide
[9] = tested on: S. pneumoniae C719; experiment: Antimicrobial assays II, NCCLS broth microdilution MIC; assay type: cell-based, Streptococcus pneumoniae; details: mean of three, in µg/mL
[10] = tested on: S. pneumoniae C718; experiment: as above; assay type: cell-based, Streptococcus pneumoniae; details: mean of three
[11] = tested on: WI38; details: MTT, 24 hours with peptide; normal fibroblast line
[12] = tested on: P. aeruginosa; assay type: cell-based, Pseudomonas aeruginosa; details: P. aeruginosa H744; MIC of nalidixic acid with peptide at ¼ MIC
How it was run: (§1)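 Synergy against efflux-mutant strains: two-fold dilutions of nalidixic acid or chloramphenicol tested with peptide held at ¼ of its MIC.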

[13] = tested on: P. aeruginosa H374; assay type: cell-based, Pseudomonas aeruginosa; details: for MIC Cm-comb.: MIC of chloramphenicol with peptide at ¼ MIC; for MIC Nal-comb.: MIC of nalidixic acid with peptide at ¼ MIC; for FIC Index: 0.5 or less = synergy
How it was run: as §1

[14] = tested on: P. aeruginosa H774; assay type: cell-based, Pseudomonas aeruginosa; details: P. aeruginosa H744; nalidixic acid + peptide at ¼ MIC; 0.5 or less = synergy
How it was run: as §1

[15] = tested on: BMKC; experiment: Anti-cancer assay, MTT, LD50; assay type: cell-based; details: BMKC cloned melanoma line, 24 hours with peptide
Excerpt: (§2) Numbers are LD50 values (μg/mL).

[16] = tested on: MCF7; experiment: Anti-cancer assay, MTT, LD50; assay type: cell-based; details: MCF7 breast adenocarcinoma line, MTT, 24 hours with peptide
Excerpt: as §2

[17] = tested on: H1299; experiment: Anti-cancer assay, MTT, LD50; assay type: cell-based; details: 24 hours with peptide, lung large cell carcinoma
Excerpt: as §2

[18] = tested on: PC3; experiment: Anti-cancer assay, MTT, LD50; assay type: cell-based; details: 24 hours with peptide, prostate adenocarcinoma
Excerpt: as §2

[19] = tested on: HeLaS3; experiment: Anti-cancer assay, MTT, LD50; assay type: cell-based; details: 24 hours with peptide, cervical carcinoma
Excerpt: as §2

[20] = tested on: SW480; experiment: Anti-cancer assay, MTT, LD50; assay type: cell-based; details: SW480 colon adenocarcinoma line, 24 hours with peptide
Excerpt: as §2

[21] = tested on: P. acne ATCC 6919; experiment: Antimicrobial assays II, NCCLS broth microdilution MIC; assay type: cell-based, Propionibacterium acnes; details: mean of three, in µg/mL
[22] = tested on: S. epidermidis C621; assay type: cell-based, Staphylococcus epidermidis; details: mean of three; 16 to 20 hours at 35° C.
[23] = chloramphenicol + peptide at ¼ MIC
[24] = nalidixic acid + peptide at ¼ MIC, FIC=0.25+MIC comb/MIC alone

Row | Substance | staph6538 (MIC) [1] [µg/mL] | paerug9027 (MIC) [2] [µg/mL] | HC50 at 1 h [3] [µg/mL] | S. aureus (MRSA) MIC [4] [µg/mL] | S. pyogenes MIC [5] | yeast (MIC or MFC) [6] | S. pyogenes M76 MIC [7] [µg/mL] | CC50 at 24 h [8] [µg/mL] | S. pneumoniae MIC [9] | S. pneumoniae MIC [10] [µg/mL] | WI38 LD50 [11] [µg/mL] | MIC Nal-comb. [12] [µg/mL] | MIC Cm-comb. [13] [µg/mL] | MIC Nal-comb. [13] [µg/mL] | FIC Index [13, 23] | FIC Index [13, 24] | FIC Index [14] | LD50 BMKC [15] [µg/mL] | LD50 MCF7 [16] [µg/mL] | H1299 LD50 [17] [µg/mL] | further results
1 | FAKLLAKLAKKVL-NH2 [P124] | 5 | 100 | 55 | 8 | 16 | 100 µg/mL | 16 | 21 | 64 | > 128 | 21 | 624 | 16 | 2500 | 1.25 | 0.75 | 1.25 | 10 | 18 | 30 | PC3 LD50 [18]: 10 µg/mL; HeLaS3 LD50 [19]: 14 µg/mL; LD50 SW480 [20]: 9 µg/mL; P. acne MIC [21]: 8; S. epidermidis C621 MIC [22]: 4 µg/mL
2 | FAKKLAKLALKLAKL-NH2 [P44] | 5 | 5 | 90 | 8 | 4 | 50 µg/mL | 4 | 36 | 16 | 8 | 36 | 624 | 16 | 5000 | 1.25 | 1.25 | 1.25 | 47 | 140 | 72 | PC3 LD50 [18]: 45 µg/mL; HeLaS3 LD50 [19]: 22 µg/mL; LD50 SW480 [20]: 32 µg/mL; P. acne MIC [21]: 4; S. epidermidis C621 MIC [22]: 4 µg/mL
3 | FAKLLAKLAKKLL-NH2 [P43] | 5 | 100 | 20 | 4 | 2 | 25 µg/mL | 2 | 5 | 4 | 8 | 5 | 624 | 16 | 5000 | 1.25 | 1.25 | 1.25 | 7 | 9 | 6 | PC3 LD50 [18]: 12 µg/mL; HeLaS3 LD50 [19]: 15 µg/mL; LD50 SW480 [20]: 9 µg/mL; P. acne MIC [21]: 2; S. epidermidis C621 MIC [22]: 2 µg/mL
4 | FALAKLAKKAKAKLKKALKAL-NH2 [P26] | 10 | 15 | 90 | 32 | 4 | > (> indicates greater than 200 μg/mL) | 4 | 96 | 16 | > 128 | 96 | 624 | 8 | 2500 | 0.75 | 0.75 | 1.25 | 94 | 74 | 84 | PC3 LD50 [18]: 125 µg/mL; HeLaS3 LD50 [19]: 150 µg/mL; LD50 SW480 [20]: 8 µg/mL; P. acne MIC [21]: 4; S. epidermidis C621 MIC [22]: 4 µg/mL
5 | FALAAKALKKLAKKLKKLAKKAL-NH2 [P23] | 5 | 50 | 300 | 32 | 8 | 100 µg/mL | 16 | 34 | 16 | 16 | 34 | 624 | 8 | 2500 | 0.75 | 0.75 | 1.25 | 27 | 62 | 64 | PC3 LD50 [18]: 41 µg/mL; HeLaS3 LD50 [19]: 82 µg/mL; LD50 SW480 [20]: 5 µg/mL; P. acne MIC [21]: 4; S. epidermidis C621 MIC [22]: 16 µg/mL
6 | KYKKALKKLAKLL-NH2 [P146] | 10 | 10 | 180 | 16 | 8 | 50 µg/mL | 8 | 270 | 128 | > 128 | 270 | 624 | 4 | 625 | 0.5 | 0.375 | 1.25 | 185 | 110 | 93 | PC3 LD50 [18]: 440 µg/mL; HeLaS3 LD50 [19]: 640 µg/mL; LD50 SW480 [20]: 380 µg/mL; P. acne MIC [21]: 16; S. epidermidis C621 MIC [22]: 8 µg/mL
